Assay results as given in PubChem BioAssay (NCI).
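Cells were grown in 96-well plates and exposed to each compound for 48 hours at five concentrations; endpoints were interpolated linearly between bracketing concentrations, or set to the highest concentration if not reached. GI50 = concentration required for 50% inhibition of growth. Definition used: TGI = concentration required for complete inhibition of growth.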

Key:
Experiment in all cases: NCI-60 cell line screen, 48 h
OVCAR-5 ovarian = tested on: OVCAR-5 ovarian
K-562 leukemia = tested on: K-562 leukemia
MDA-MB-435 = tested on: MDA-MB-435
HCC-2998 colon = tested on: HCC-2998 colon
MCF7 breast = tested on: MCF7 breast
EKVX NSCLC = tested on: EKVX NSCLC
OVCAR-3 ovarian = tested on: OVCAR-3 ovarian
SW-620 colon = tested on: SW-620 colon
UO-31 renal = tested on: UO-31 renal
IGROV1 ovarian = tested on: IGROV1 ovarian
SF-539 CNS = tested on: SF-539 CNS
A549 NSCLC = tested on: A549 NSCLC
U251 CNS = tested on: U251 CNS
CAKI-1 renal = tested on: CAKI-1 renal
OVCAR-8 ovarian = tested on: OVCAR-8 ovarian
NCI-H522 lung = tested on: NCI-H522 lung
MALME-3M melanoma = tested on: MALME-3M melanoma
TK-10 renal = tested on: TK-10 renal
A498 renal = tested on: A498 renal
CCRF-CEM leukemia = tested on: CCRF-CEM leukemia
COLO 205 colon = tested on: COLO 205 colon
SF-268 CNS = tested on: SF-268 CNS
NCI/ADR-RES ovarian = tested on: NCI/ADR-RES ovarian
M14 melanoma = tested on: M14 melanoma
HCT-116 colon = tested on: HCT-116 colon
OVCAR-4 ovarian = tested on: OVCAR-4 ovarian
SK-MEL-2 melanoma = tested on: SK-MEL-2 melanoma
MOLT-4 leukemia = tested on: MOLT-4 leukemia
DU-145 prostate = tested on: DU-145 prostate
786-0 renal = tested on: 786-0 renal
MDA-MB-231 breast = tested on: MDA-MB-231 breast
NCI-H460 lung = tested on: NCI-H460 lung
UACC-62 melanoma = tested on: UACC-62 melanoma
SNB-19 CNS = tested on: SNB-19 CNS
NCI-H23 lung = tested on: NCI-H23 lung
SK-OV-3 ovarian = tested on: SK-OV-3 ovarian
LOX IMVI melanoma = tested on: LOX IMVI melanoma
HOP-92 NSCLC = tested on: HOP-92 NSCLC
BT-549 breast = tested on: BT-549 breast
UACC-257 melanoma = tested on: UACC-257 melanoma
HS 578T breast = tested on: HS 578T breast
HCT-15 colon = tested on: HCT-15 colon
NCI-H226 lung = tested on: NCI-H226 lung
HOP-62 NSCLC = tested on: HOP-62 NSCLC
SK-MEL-5 melanoma = tested on: SK-MEL-5 melanoma
ACHN renal = tested on: ACHN renal
RXF 393 renal = tested on: RXF 393 renal
PC-3 prostate = tested on: PC-3 prostate
SF-295 CNS = tested on: SF-295 CNS
SR leukemia = tested on: SR leukemia
SN12C renal = tested on: SN12C renal
KM12 colon = tested on: KM12 colon
RPMI-8226 leukemia = tested on: RPMI-8226 leukemia

Compound: CCN(CC)CCCC(C)Nc1ccnc2cc(OC)ccc12 (stereo unspecified)
- GI50 (OVCAR-5 ovarian): 21.2 µM
- TGI (OVCAR-5 ovarian): 50.2 µM
- GI50 (K-562 leukemia): 33.7 µM
- TGI (K-562 leukemia): > 100 µM
- GI50 (MDA-MB-435): 19.9 µM
- TGI (MDA-MB-435): 40.5 µM
- GI50 (HCC-2998 colon): 14.7 µM
- TGI (HCC-2998 colon): 28.4 µM
- GI50 (MCF7 breast): > 100 µM
- TGI (MCF7 breast): > 100 µM
- GI50 (EKVX NSCLC): 44.9 µM
- TGI (EKVX NSCLC): > 100 µM
- GI50 (OVCAR-3 ovarian): 23.7 µM
- TGI (OVCAR-3 ovarian): 67.5 µM
- GI50 (SW-620 colon): 23.7 µM
- TGI (SW-620 colon): 58.2 µM
- GI50 (UO-31 renal): 16.4 µM
- TGI (UO-31 renal): 34.6 µM
- GI50 (IGROV1 ovarian): 27.3 µM
- TGI (IGROV1 ovarian): 79.3 µM
- GI50 (SF-539 CNS): 19 µM
- TGI (SF-539 CNS): 34.4 µM
- GI50 (A549 NSCLC): 18.3 µM
- TGI (A549 NSCLC): 35.5 µM
- GI50 (U251 CNS): 42 µM
- TGI (U251 CNS): > 100 µM
- GI50 (CAKI-1 renal): 19.6 µM
- TGI (CAKI-1 renal): 44.4 µM
- GI50 (OVCAR-8 ovarian): 24.3 µM
- TGI (OVCAR-8 ovarian): 71.1 µM
- GI50 (NCI-H522 lung): 17.9 µM
- TGI (NCI-H522 lung): 37.4 µM
- GI50 (MALME-3M melanoma): 22.1 µM
- TGI (MALME-3M melanoma): 50.2 µM
- GI50 (TK-10 renal): 17.7 µM
- TGI (TK-10 renal): 40.6 µM
- GI50 (A498 renal): 35.3 µM
- TGI (A498 renal): > 100 µM
- GI50 (CCRF-CEM leukemia): 18.1 µM
- TGI (CCRF-CEM leukemia): 42.3 µM
- GI50 (COLO 205 colon): 16.1 µM
- TGI (COLO 205 colon): 36.8 µM
- GI50 (SF-268 CNS): > 100 µM
- TGI (SF-268 CNS): > 100 µM
- GI50 (NCI/ADR-RES ovarian): 91.1 µM
- TGI (NCI/ADR-RES ovarian): > 100 µM
- GI50 (M14 melanoma): 16.7 µM
- TGI (M14 melanoma): 30.4 µM
- GI50 (HCT-116 colon): 29.2 µM
- TGI (HCT-116 colon): 46 µM
- GI50 (OVCAR-4 ovarian): 22.6 µM
- TGI (OVCAR-4 ovarian): 62.2 µM
- GI50 (SK-MEL-2 melanoma): 24.8 µM
- TGI (SK-MEL-2 melanoma): 52.9 µM
- GI50 (MOLT-4 leukemia): 25.9 µM
- TGI (MOLT-4 leukemia): 74.5 µM
- GI50 (DU-145 prostate): 20.6 µM
- TGI (DU-145 prostate): 44.4 µM
- GI50 (786-0 renal): 17.1 µM
- TGI (786-0 renal): 35.9 µM
- GI50 (MDA-MB-231 breast): 22.5 µM
- TGI (MDA-MB-231 breast): 54.3 µM
- GI50 (NCI-H460 lung): > 100 µM
- TGI (NCI-H460 lung): > 100 µM
- GI50 (UACC-62 melanoma): 19.5 µM
- TGI (UACC-62 melanoma): 37.7 µM
- GI50 (SNB-19 CNS): 22.4 µM
- TGI (SNB-19 CNS): 53.3 µM
- GI50 (NCI-H23 lung): 31.6 µM
- TGI (NCI-H23 lung): 96.3 µM
- GI50 (SK-OV-3 ovarian): 24.9 µM
- TGI (SK-OV-3 ovarian): 52.3 µM
- GI50 (LOX IMVI melanoma): 29.5 µM
- TGI (LOX IMVI melanoma): > 100 µM
- GI50 (HOP-92 NSCLC): 9.25 µM
- TGI (HOP-92 NSCLC): 26.7 µM
- GI50 (BT-549 breast): 18.7 µM
- TGI (BT-549 breast): 37 µM
- GI50 (UACC-257 melanoma): 18.2 µM
- TGI (UACC-257 melanoma): 34.2 µM
- GI50 (HS 578T breast): 26.3 µM
- TGI (HS 578T breast): 66.3 µM
- GI50 (HCT-15 colon): 37.5 µM
- TGI (HCT-15 colon): > 100 µM
- GI50 (NCI-H226 lung): 22.2 µM
- TGI (NCI-H226 lung): 46.6 µM
- GI50 (HOP-62 NSCLC): 21.2 µM
- TGI (HOP-62 NSCLC): 50.9 µM
- GI50 (SK-MEL-5 melanoma): 18.3 µM
- TGI (SK-MEL-5 melanoma): 32.8 µM
- GI50 (ACHN renal): 39.4 µM
- TGI (ACHN renal): > 100 µM
- GI50 (RXF 393 renal): 15.7 µM
- TGI (RXF 393 renal): 35.5 µM
- GI50 (PC-3 prostate): 5.77 µM
- TGI (PC-3 prostate): 21.8 µM
- GI50 (SF-295 CNS): 34.3 µM
- TGI (SF-295 CNS): > 100 µM
- GI50 (SR leukemia): 24.1 µM
- TGI (SR leukemia): > 100 µM
- GI50 (SN12C renal): 29.7 µM
- TGI (SN12C renal): 75.1 µM
- GI50 (KM12 colon): 26.4 µM
- TGI (KM12 colon): > 100 µM
- GI50 (RPMI-8226 leukemia): 18.6 µM
- TGI (RPMI-8226 leukemia): 42 µM
